Measured values: patent US20230372498A1, “PLK1 SELECTIVE DEGRADATION INDUCING COMPOUND” (UPPTHERA, priority 2020, published 2023)

Target: T1, PLK1 (Homo sapiens, UniProt P53350)
T1 construct: endogenous in cells; host or cells: HeLa
Assay: PLK1 protein degradation in HeLa cells, Western blotting (PLK1/GAPDH ratio)
Type: cell-based
Settings: 6 hours compound incubation; for DC50: measured only if the grade of Dmax is A or B; for Dmax: thymidine block and release, 10 points three-fold from 3 μM, PLK1 to GAPDH ratio, read-out: Dmax
In short: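 Thymidine-synchronised HeLa cells (2 mM, 24 h) released 4 h into complete medium, then treated 6 h with compound in 10-point 3-fold dilutions from 3 μM. RIPA lysates (15 μg protein) run on SDS-PAGE; PLK1 Western blot normalised to GAPDH.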

T1 sequence (P53350 whole entry): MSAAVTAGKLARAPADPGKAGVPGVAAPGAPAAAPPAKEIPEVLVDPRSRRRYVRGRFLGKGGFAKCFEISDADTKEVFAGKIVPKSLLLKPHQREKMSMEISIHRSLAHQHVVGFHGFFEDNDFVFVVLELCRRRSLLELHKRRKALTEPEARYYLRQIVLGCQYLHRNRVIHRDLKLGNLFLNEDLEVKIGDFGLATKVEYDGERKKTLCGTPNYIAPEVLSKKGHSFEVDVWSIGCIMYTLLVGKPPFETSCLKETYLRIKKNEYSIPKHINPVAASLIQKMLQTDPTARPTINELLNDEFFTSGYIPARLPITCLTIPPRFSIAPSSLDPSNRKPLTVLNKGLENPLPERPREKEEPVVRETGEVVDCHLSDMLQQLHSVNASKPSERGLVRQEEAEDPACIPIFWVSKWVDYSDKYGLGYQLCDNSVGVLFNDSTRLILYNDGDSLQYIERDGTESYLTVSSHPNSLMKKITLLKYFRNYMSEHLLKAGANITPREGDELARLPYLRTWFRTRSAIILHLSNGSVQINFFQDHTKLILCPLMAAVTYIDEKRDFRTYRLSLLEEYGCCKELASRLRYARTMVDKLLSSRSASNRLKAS

Row | Structure (SMILES) | DC50 [µM] | Dmax [%]
1 | COc1cc(C(=O)NC2CCN(C(=O)CCN3CCN(c4cccc5c4C(=O)N(C4CCC(=O)NC4=O)C5=O)CC3)CC2)ccc1Nc1ncc2c(n1)N(C1CCCC1)CC(F)(F)C(=O)N2C (centres unmarked) [Compound 128, 4-((9-cyclopentyl-7,7-difluoro-5-methyl-6-oxo-6,7,8,9-tetrahydro-5H-pyrimido[4,5-b][1,4]diazepin-2-yl)amino)-N-(1-(3-(4-(2-(2,6-dioxopiperidin-3-yl)-1,3-dioxoisoindolin-4-yl)piperazin-1-yl)propanoyl)piperidin-4-yl)-3-methoxybenzamide] | ≤ 0.05 | ≥ 80
2 | CN1C(=O)C(F)(F)CN(C2CCCC2)c2nc(Nc3cc(F)c(C(=O)NC4CCN(CCOCCOCCNc5cccc6c5C(=O)N(C5CCC(=O)NC5=O)C6=O)CC4)cc3OC3CC3)ncc21 (centres unmarked) [Example 92, 4-((9-cyclopentyl-7,7-difluoro-5-methyl-6-oxo-6,7,8,9-tetrahydro-5H-pyrimido[4,5-b][1,4]diazepin-2-yl)amino)-5-cyclopropoxy-N-(1-(2-(2-(2-((2-(2,6-dioxopiperidin-3-yl)-1,3-dioxoisoindolin-4-yl)amino)ethoxy)ethoxy)ethyl)piperidin-4-yl)-2-fluorobenzamide] | ≤ 0.05 | ≥ 80
3 | COc1cc(C(=O)N[C@H]2CCN(C(=O)CCN3CCN(c4cccc5c4C(=O)N(C4CCC(=O)NC4=O)C5=O)CC3)C2)c(F)cc1Nc1ncc2c(n1)N(C1CCCC1)CC(F)(F)C(=O)N2C (stereo partly drawn) [Compound 131, 4-((9-cyclopentyl-7,7-difluoro-5-methyl-6-oxo-6,7,8,9-tetrahydro-5H-pyrimido[4,5-b][1,4]diazepin-2-yl)amino)-N-((3S)-1-(3-(4-(2-(2,6-dioxopiperidin-3-yl)-1,3-dioxoisoindolin-4-yl)piperazin-1-yl)propanoyl)pyrrolidin-3-yl)-2-fluoro-5-methoxybenzamide] | ≤ 0.05 | ≥ 80
4 | COc1cc(C(=O)NC2CCN(CC(=O)NCCOCCNc3cccc4c3C(=O)N(C3CCC(=O)NC3=O)C4=O)CC2)c(F)cc1Nc1ncc2c(n1)N(C1CCCC1)CC(F)(F)C(=O)N2C (centres unmarked) [Compound 35, 4-((9-cyclopentyl-7,7-difluoro-5-methyl-6-oxo-6,7,8,9-tetrahydro-5H-pyrimido[4,5-b][1,4]diazepin-2-yl)amino)-N-(1-(2-((2-(2-((2-(2,6-dioxopiperidin-3-yl)-1,3-dioxoisoindolin-4-yl)amino)ethoxy)ethyl)amino)-2-oxoethyl)piperidin-4-yl)-2-fluoro-5-methoxybenzamide] | ≤ 0.05 | ≥ 80
5 | CN1C(=O)C(F)(F)CN(C2CCCC2)c2nc(Nc3ccc(C(=O)N[C@H]4CCN(C(=O)CCC(=O)N5CCN(c6cccc7c6C(=O)N(C6CCC(=O)NC6=O)C7=O)CC5)C4)cc3)ncc21 (stereo partly drawn) [Compound 142, 4-((9-cyclopentyl-7,7-difluoro-5-methyl-6-oxo-6,7,8,9-tetrahydro-5H-pyrimido[4,5-b][1,4]diazepin-2-yl)amino)-N-((3S)-1-(4-(4-(2-(2,6-dioxopiperidin-3-yl)-1,3-dioxoisoindolin-4-yl)piperazin-1-yl)-4-oxobutanoyl)pyrrolidin-3-yl)benzamide] | ≤ 0.5 | 60 to 80
6 | COc1cc(C(=O)NCCOCCCOCCNc2cccc3c2C(=O)N(C2CCC(=O)NC2=O)C3=O)c(F)cc1Nc1ncc2c(n1)N(C1CCCC1)CC(F)(F)C(=O)N2C (centres unmarked) [Compound 156, 4-((9-cyclopentyl-7,7-difluoro-5-methyl-6-oxo-6,7,8,9-tetrahydro-5H-pyrimido[4,5-b][1,4]diazepin-2-yl)amino)-N-(2-(3-(2-((2-(2,6-dioxopiperidin-3-yl)-1,3-dioxoisoindolin-4-yl)amino)ethoxy)propoxy)ethyl)-2-fluoro-5-methoxybenzamide] | ≤ 0.05 | ≥ 80
7 | COc1cc(C(=O)NC2CCN(C(=O)CN3CCN(c4ccc5c(c4)C(=O)N(C4CCC(=O)NC4=O)C5=O)CC3)CC2)c(F)cc1Nc1ncc2c(n1)N(C1CCCC1)CC(F)(F)C(=O)N2C (centres unmarked) [Compound 73, 4-((9-cyclopentyl-7,7-difluoro-5-methyl-6-oxo-6,7,8,9-tetrahydro-5H-pyrimido[4,5-b][1,4]diazepin-2-yl)amino)-N-(1-(2-(4-(2-(2,6-dioxopiperidin-3-yl)-1,3-dioxoisoindolin-5-yl)piperazin-1-yl)acetyl)piperidin-4-yl)-2-fluoro-5-methoxybenzamide] | ≤ 0.05 | ≥ 80
8 | COc1cc(C(=O)NC2CCN(C(=O)CCN3CCN(c4ccc5c(c4)C(=O)N(C4CCC(=O)NC4=O)C5=O)CC3)CC2)c(F)cc1Nc1ncc2c(n1)N(C1CCCC1)CC(F)(F)C(=O)N2C (centres unmarked) [Compound 74, 4-((9-cyclopentyl-7,7-difluoro-5-methyl-6-oxo-6,7,8,9-tetrahydro-5H-pyrimido[4,5-b][1,4]diazepin-2-yl)amino)-N-(1-(3-(4-(2-(2,6-dioxopiperidin-3-yl)-1,3-dioxoisoindolin-5-yl)piperazin-1-yl)propanoyl)piperidin-4-yl)-2-fluoro-5-methoxybenzamide] | ≤ 0.05 | ≥ 80
9 | COc1cc(C(=O)NC2CCN(Cc3cn(CCNC(=O)CNc4cccc5c4C(=O)N(C4CCC(=O)NC4=O)C5=O)nn3)CC2)c(F)cc1Nc1ncc2c(n1)N(C1CCCC1)CC(F)(F)C(=O)N2C (centres unmarked) [Compound 47, 4-((9-cyclopentyl-7,7-difluoro-5-methyl-6-oxo-6,7,8,9-tetrahydro-5H-pyrimido[4,5-b][1,4]diazepin-2-yl)amino)-N-(1-((1-(2-(2-((2-(2,6-dioxopiperidin-3-yl)-1,3-dioxoisoindolin-4-yl)amino)acetamido)ethyl)-1H-1,2,3-triazol-4-yl)methyl)piperidin-4-yl)-2-fluoro-5-methoxybenzamide] |  | < 60
10 | COc1cc(C(=O)N[C@H]2CCN(C(=O)CCC(=O)N3CCN(c4ccc5c(c4)C(=O)N(C4CCC(=O)NC4=O)C5=O)CC3)C2)ccc1Nc1ncc2c(n1)N(C1CCCC1)CC(F)(F)C(=O)N2C (stereo partly drawn) [Compound 145, 4-((9-cyclopentyl-7,7-difluoro-5-methyl-6-oxo-6,7,8,9-tetrahydro-5H-pyrimido[4,5-b][1,4]diazepin-2-yl)amino)-N-((3S)-1-(4-(4-(2-(2,6-dioxopiperidin-3-yl)-1,3-dioxoisoindolin-5-yl)piperazin-1-yl)-4-oxobutanoyl)pyrrolidin-3-yl)-3-methoxybenzamide] | > 0.5 | 60 to 80
11 | CC(C)Oc1cc(C(=O)NC2CCN(CCOCCOCCNc3cccc4c3C(=O)N(C3CCC(=O)NC3=O)C4=O)CC2)c(F)cc1Nc1ncc2c(n1)N(C1CCCC1)CC(F)(F)C(=O)N2C (centres unmarked) [Example 91, 4-((9-cyclopentyl-7,7-difluoro-5-methyl-6-oxo-6,7,8,9-tetrahydro-5H-pyrimido[4,5-b][1,4]diazepin-2-yl)amino)-N-(1-(2-(2-(2-((2-(2,6-dioxopiperidin-3-yl)-1,3-dioxoisoindolin-4-yl)amino)ethoxy)ethoxy)ethyl)piperidin-4-yl)-2-fluoro-5-isopropoxybenzamide] | ≤ 0.5 | 60 to 80
12 | COc1cc(C(=O)NC2CCN(CCOCCNc3cccc4c3C(=O)N(C3CCC(=O)NC3=O)C4=O)C2)c(F)cc1Nc1ncc2c(n1)N(C1CCCC1)CC(F)(F)C(=O)N2C (centres unmarked) [Example 106, 4-((9-cyclopentyl-7,7-difluoro-5-methyl-6-oxo-6,7,8,9-tetrahydro-5H-pyrimido[4,5-b][1,4]diazepin-2-yl)amino)-N-(1-(2-(2-((2-(2,6-dioxopiperidin-3-yl)-1,3-dioxoisoindolin-4-yl)amino)ethoxy)ethyl)pyrrolidin-3-yl)-2-fluoro-5-methoxybenzamide] | ≤ 0.5 | 60 to 80
13 | CN1C(=O)C(F)(F)CN(C2CCCC2)c2nc(Nc3cc(F)c(C(=O)NC4CCN(CCOCCOCCNc5cccc6c5C(=O)N(C5CCC(=O)NC5=O)C6=O)CC4)cc3OC3CCC3)ncc21 (centres unmarked) [Example 93, 5-cyclobutoxy-4-((9-cyclopentyl-7,7-difluoro-5-methyl-6-oxo-6,7,8,9-tetrahydro-5H-pyrimido[4,5-b][1,4]diazepin-2-yl)amino)-N-(1-(2-(2-(2-((2-(2,6-dioxopiperidin-3-yl)-1,3-dioxoisoindolin-4-yl)amino)ethoxy)ethoxy)ethyl)piperidin-4-yl)-2-fluorobenzamide] | ≤ 0.05 | ≥ 80
14 | COc1cc(C(=O)N[C@H]2CCN(C(=O)COCCOCCOCCOCCNc3cccc4c3C(=O)N(C3CCC(=O)NC3=O)C4=O)C2)c(F)cc1Nc1ncc2c(n1)N(C1CCCC1)CC(F)(F)C(=O)N2C (stereo partly drawn) [Compound 116, 4-((9-cyclopentyl-7,7-difluoro-5-methyl-6-oxo-6,7,8,9-tetrahydro-5H-pyrimido[4,5-b][1,4]diazepin-2-yl)amino)-N-((3S)-1-(14-((2-(2,6-dioxopiperidin-3-yl)-1,3-dioxoisoindolin-4-yl)amino)-3,6,9,12-tetraoxatetradecanoyl)pyrrolidin-3-yl)-2-fluoro-5-methoxybenzamide] | ≤ 0.05 | ≥ 80
15 | COc1cc(C(=O)NCCOCCOCCNc2cccc3c2C(=O)N(C2CCC(=O)NC2=O)C3=O)ccc1Nc1ncc2c(n1)N(C1CCCC1)CC(F)(F)C(=O)N2C (centres unmarked) [Example 168, 4-((9-cyclopentyl-7,7-difluoro-5-methyl-6-oxo-6,7,8,9-tetrahydro-5H-pyrimido[4,5-b][1,4]diazepin-2-yl)amino)-N-(2-(2-(2-((2-(2,6-dioxopiperidin-3-yl)-1,3-dioxoisoindolin-4-yl)amino)ethoxy)ethoxy)ethyl)-3-methoxybenzamide] |  | ≥ 80
16 | COc1cc(C(=O)NCCCCCc2cccc3c2CN(C2CCC(=O)NC2=O)C3=O)c(F)cc1Nc1ncc2c(n1)N(C1CCCC1)CC(F)(F)C(=O)N2C (centres unmarked) [Example 165, 4-((9-cyclopentyl-7,7-difluoro-5-methyl-6-oxo-6,7,8,9-tetrahydro-5H-pyrimido[4,5-b][1,4]diazepin-2-yl)amino)-N-(5-(2-(2,6-dioxopiperidin-3-yl)-1-oxoisoindolin-4-yl)pentyl)-2-fluoro-5-methoxybenzamide] |  | < 60
